Assay results taken from patent US10196381B2, “Benzimidazole-2-piperazine heterocyclic compound, pharmaceutical composition containing the same, preparation method and use thereof” (Shanghai Huilun Life Science & Technology Co., Ltd., priority 2013, dated 2019).

Target: PARP-1 enzyme (Homo sapiens (Human), UniProt P09874)
Assay: PARP enzyme activity assay (HT Universal Chemiluminescent PARP Assay Kit, histone-coated wells)
Assay type: biochemical
Settings: for inhibition at 0.03 µM: read-out: Inhibition (%) at 30 nM; for inhibition at 0.1 µM: read-out: Inhibition (%) at 100 nM
Method: PARP is an enzyme responsible for post-translational modification, which may be activated by means of DNA damage. The process catalyzed by PARP in vivo is mainly NAD-dependent poly(ADP-ribosyl)ation, in which the substrates are mainly some nuclear proteins including PARP, one example of which is histone. In the present invention, the PARP activity is assayed by determining the poly(ADP-ribosyl)ation degree of histone coated in a 96-well plate in the presence of NAD, and the PARP activity under the action of a PARP inhibitor is correspondingly assayed, thereby evaluating the degree of inhibition of the compounds on PARP activity. Poly(ADP-ribosyl)ation of nuclear proteins is a post-translational modification occurred in response to DNA damage. PARP is the abbreviation of poly(ADP-ribose)polymerase, which catalyzes the attachment of poly(ADP-ribose) to an adjacent nuclear protein in the presence of NAD, thus eliciting a mechanism of DNA repair through base excision repair pathway. The level of biotin-labeled ADP-ribose binding to histone can be detected by using the HT Universal Chemiluminescent PARP Assay Kit commercially available from Trevigen Corp. […] HT Universal Chemiluminescent PARP Assay Kit with Histone-coated Strip Wells, commercially available from Trevigen (US), Catalog #: 4676-096-K. […] 4. The PARP enzyme was carefully diluted with the 1×PARP buffer just before use, the diluted enzyme solution should be used as quickly as possible and the remaining solution should be discarded. […] 2. […] 1. […] 2. […] 4. […] After washing, equal volume of the PeroxyGlow A and B solutions were uniformly mixed, 100 μl of the solution was added to each well, and the chemiluminescent signals were recorded on a plate reader immediately. The readout of each well is converted into the percent inhibition. […] Note: the readout of the positive control well is designated as 100% enzyme activity; the readout of the negative control well is designated as 0% enzyme activity; and the activity X refers to the readout from respective concentration of each sample.

PARP-1 enzyme, sequence (P09874 whole entry): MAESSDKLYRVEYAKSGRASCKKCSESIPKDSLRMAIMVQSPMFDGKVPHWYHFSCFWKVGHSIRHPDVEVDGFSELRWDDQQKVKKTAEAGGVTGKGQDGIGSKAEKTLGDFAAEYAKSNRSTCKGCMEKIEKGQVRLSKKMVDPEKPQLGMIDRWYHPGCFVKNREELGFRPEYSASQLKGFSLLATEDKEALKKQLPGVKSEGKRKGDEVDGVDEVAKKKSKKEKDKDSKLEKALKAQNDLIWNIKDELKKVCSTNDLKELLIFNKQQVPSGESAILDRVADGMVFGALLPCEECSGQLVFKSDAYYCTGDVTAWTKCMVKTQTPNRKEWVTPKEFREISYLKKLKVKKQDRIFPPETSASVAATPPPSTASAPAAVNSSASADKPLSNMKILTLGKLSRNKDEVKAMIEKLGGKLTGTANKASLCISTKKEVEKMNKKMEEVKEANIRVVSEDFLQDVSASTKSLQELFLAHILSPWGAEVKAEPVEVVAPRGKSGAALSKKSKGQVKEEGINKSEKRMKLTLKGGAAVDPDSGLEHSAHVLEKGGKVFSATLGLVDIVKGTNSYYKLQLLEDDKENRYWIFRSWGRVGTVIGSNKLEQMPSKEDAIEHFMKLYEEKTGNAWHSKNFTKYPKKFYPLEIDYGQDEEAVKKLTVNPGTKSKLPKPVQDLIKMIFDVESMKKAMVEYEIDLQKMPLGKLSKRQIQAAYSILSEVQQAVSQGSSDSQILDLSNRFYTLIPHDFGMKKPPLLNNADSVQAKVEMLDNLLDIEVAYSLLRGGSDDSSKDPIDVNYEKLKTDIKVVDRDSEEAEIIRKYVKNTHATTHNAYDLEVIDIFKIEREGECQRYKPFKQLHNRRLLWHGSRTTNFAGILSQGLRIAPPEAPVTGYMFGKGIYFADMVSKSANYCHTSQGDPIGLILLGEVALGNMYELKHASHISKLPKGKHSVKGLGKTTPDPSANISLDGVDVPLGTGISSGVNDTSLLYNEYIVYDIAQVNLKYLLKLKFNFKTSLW

SMILES | inhibition at 0.03 µM [%] | inhibition at 0.1 µM [%]
NC(=O)c1cc(F)cc2[nH]c(N3CCN(c4ccc(C(F)(F)F)nn4)CC3)nc12 [Compound (31), 6-fluoro-2-(4-(6-trifluoromethylpyridazin-3-yl)piperazin-1-yl)-1H-benzimidazole-4-carboxamide] | 80 | 95
CNC(=O)c1cccnc1N1CCN(c2nc3c(C(N)=O)cc(F)cc3[nH]2)CC1 [Compound (20), 6-fluoro-2-(4-(3-methylcarbamoylpyridin-2-yl)piperazin-1-yl)-1H-benzimidazole-4-carboxamide] | 39 | 67
CC(C)(C)NC(=O)c1cnc(N2CCN(c3nc4c(C(N)=O)cc(F)cc4[nH]3)CC2)cn1 [Compound (28), 2-(4-(5-t-butylcarbamoylpyrazin-2-yl)piperazin-1-yl)-6-fluoro-1H-benzimidazole-4-carboxamide] | 53 | 78
NC(=O)c1cc(F)cc2[nH]c(N3CCN(c4cnc(C(F)(F)F)cn4)CC3)nc12 [Compound (35), 6-fluoro-2-(4-(5-trifluoromethylpyrazin-2-yl)piperazin-1-yl)-1H-benzimidazole-4-carboxamide] | 76 | 91
NC(=O)c1cc(F)cc2[nH]c(N3CCN(c4ncc(C(F)(F)F)cn4)CC3)nc12 [Compound (34), 6-fluoro-2-(4-(5-trifluoromethylpyrimidin-2-yl)piperazin-1-yl)-1H-benzimidazole-4-carboxamide] | 36 | 60
N#Cc1cnc(N2CCN(c3nc4c(C(N)=O)cc(F)cc4[nH]3)CC2)nc1 [Compound (19), 2-(4-(5-cyanopyrimidin-2-yl)piperazin-1-yl)-6-fluoro-1H-benzimidazole-4-carboxamide] | 77 | 93
NC(=O)c1cc(F)cc2[nH]c(N3CCN(c4ccc(C(F)(F)F)cn4)CC3)nc12 [Compound (21), 6-fluoro-2-(4-(5-trifluoromethylpyridin-2-yl)piperazin-1-yl)-1H-benzimidazole-4-carboxamide] | 32 | 60
CC(=O)Nc1cnc(N2CCN(c3nc4c(C(N)=O)cccc4[nH]3)CC2)nc1 [Compound (4), 2-(4-(5-acetamidopyrimidin-2-yl)piperazin-1-yl)-1H-benzimidazole-4-carboxamide] | 27 | 53
NC(=O)c1cccc2[nH]c(N3CCN(c4cc(C(F)(F)F)ncn4)CC3)nc12 [Compound (10), 2-(4-(6-trifluoromethylpyrimidin-4-yl)piperazin-1-yl)-1H-benzimidazole-4-carboxamide] | 38 | 64
CNC(=O)c1ccc(N2CCN(c3nc4c(C(N)=O)cc(F)cc4[nH]3)CC2)nc1 [Compound (24), 6-fluoro-2-(4-(5-methylcarbamoylpyridin-2-yl)piperazin-1-yl)-1H-benzimidazole-4-carboxamide] | 45 | 65
NC(=O)c1cc(F)cc2[nH]c(N3CCN(c4cnc(C(=O)N5CCCC5)cn4)CC3)nc12 [Compound (29), 6-fluoro-2-(4-(5-(pyrrolin-1-acyl)pyrazin-2-yl)piperazin-1-yl)-1H-benzimidazole-4-carboxamide] | 71 | 88
NC(=O)c1cc(F)cc2[nH]c(N3CCN(c4ccc(C(F)(F)F)nc4)CC3)nc12 [Compound (32), 6-fluoro-2-(4-(6-trifluoromethylpyridine-3-yl)piperazin-1-yl)-1H-benzimidazole-4-carboxamide] | 66 | 84
NC(=O)c1cccc2[nH]c(N3CCN(c4ncc(N)cn4)CC3)nc12 [Compound (6), 2-(4-(5-aminopyrimidin-2-yl)piperazin-1-yl)-1H-benzimidazole-4-carboxamide] | 26 | 54
CNC(=O)c1cnc(N2CCN(c3nc4c(C(N)=O)cc(F)cc4[nH]3)CC2)nc1 [Compound (22), 6-fluoro-2-(4-(5-methylcarbamoylpyrimidin-2-yl)piperazin-1-yl)-1H-benzimidazole-4-carboxamide] | 71 | 93
CCNc1cnc(N2CCN(c3nc4c(C(N)=O)cccc4[nH]3)CC2)nc1 [Compound (3), 2-(4-(5-ethylaminopyrimidin-2-yl)piperazin-1-yl)-1H-benzimidazole-4-carboxamide] | 6 | 13
CCNC(=O)c1cnc(N2CCN(c3nc4c(C(N)=O)cc(F)cc4[nH]3)CC2)cn1 [Compound (26), 2-(4-(5-ethylcarbamoylpyrazin-2-yl)piperazin-1-yl)-6-fluoro-1H-benzimidazole-4-carboxamide] | 80 | 94
NC(=O)c1cccc2[nH]c(N3CCN(c4ccncn4)CC3)nc12 [Compound (7), 2-(4-(pyrimidin-4-yl)piperazin-1-yl)-1H-benzimidazole-4-carboxamide] | 73 | 85
CNC(=O)c1cnc(N2CCN(c3nc4c(C(N)=O)cc(F)cc4[nH]3)CC2)cn1 [Compound (25), 6-fluoro-2-(4-(5-methylcarbamoylpyrazin-2-yl)piperazin-1-yl)-1H-benzimidazole-4-carboxamide] | 79 | 92
CN(C)C(=O)c1ncc(N2CCN(c3nc4c(C(N)=O)cc(F)cc4[nH]3)CC2)cn1 [Compound (41), 2-(4-(2-dimethylcarbamoylpyrimidin-5-yl)piperazin-1-yl)-6-fluoro-1H-benzimidazole-4-carboxamide] | 75 | 92
N#Cc1ncc(N2CCN(c3nc4c(C(N)=O)cc(F)cc4[nH]3)CC2)cn1 [Compound (38), 2-(4-(2-cyanopyrimidin-5-yl)piperazin-1-yl)-6-fluoro-1H-benzimidazole-4-carboxamide] | 84 | 95
NC(=O)c1cccc2[nH]c(N3CCN(c4ccnc(C(F)(F)F)c4)CC3)nc12 [Compound (13), 2-(4-(2-trifluoromethylpyridin-4-yl)piperazin-1-yl)-1H-benzimidazole-4-carboxamide] | 43 | 69
NC(=O)c1cccc2[nH]c(N3CCN(c4ncccn4)CC3)nc12 [Compound (1), 2-(4-(pyrimidin-2-yl)piperazin-1-yl)-1H-benzimidazole-4-carboxamide] | 59 | 76
CN(C)C(=O)c1ccc(N2CCN(c3nc4c(C(N)=O)cc(F)cc4[nH]3)CC2)nc1 [Compound (18), 2-(4-(5-(dimethylcarbamoyl)pyridin-2-yl)piperazin-1-yl)-6-fluoro-1H-benzimidazole-4-carboxamide] | 56 | 77
N#Cc1cnc(N2CCN(c3nc4c(C(N)=O)cc(F)cc4[nH]3)CC2)cn1 [Compound (37), 2-(4-(5-cyanopyrazin-2-yl)piperazin-1-yl)-6-fluoro-1H-benzimidazole-4-carboxamide] | 87 | 98
CC(C)NC(=O)c1cnc(N2CCN(c3nc4c(C(N)=O)cc(F)cc4[nH]3)CC2)cn1 [Compound (27), 6-fluoro-2-(4-(5-isopropylcarbamoylpyrazin-2-yl)piperazin-1-yl)-1H-benzimidazole-4-carboxamide] | 66 | 86
CNC(=O)c1ccc(N2CCN(c3nc4c(C(N)=O)cccc4[nH]3)CC2)nc1 [Compound (11), 2-(4-(5-methylcarbamoylpyridin-2-yl)piperazin-1-yl)-1H-benzimidazole-4-carboxamide] | 59 | 78
NC(=O)c1cc(F)cc2[nH]c(N3CCN(c4cnc(C(F)(F)F)nc4)CC3)nc12 [Compound (33), 6-fluoro-2-(4-(2-trifluoromethylpyrimidin-5-yl)piperazin-1-yl)-1H-benzimidazole-4-carboxamide] | 88 | 98
CN(C)C(=O)c1cnc(N2CCN(c3nc4c(C(N)=O)cc(F)cc4[nH]3)CC2)cn1 [Compound (36), 2-(4-(5-dimethylcarbamoylpyrazin-2-yl)piperazin-1-yl)-6-fluoro-1H-benzimidazole-4-carboxamide] | 83 | 92
CN(C)C(=O)c1ccc(N2CCN(c3nc4c(C(N)=O)cccc4[nH]3)CC2)nc1 [Compound (15), 2-(4-(5-dimethylcarbamoylpyridin-2-yl)piperazin-1-yl)-1H-benzimidazole-4-carboxamide] | 44 | 70
